The source of these data is US6277845A, “Hydrazono-benzazulene derivatives, pharmaceutical compositions and intermediates” (Aventis Pharma S.A., priority 1997, dated 2001).

Structures can show the parent of a compound that is named as a salt.

Test [1] concerns bone resorption. The following applies: in vivo in the rat, Fisher et al.; cited from earlier work.
Test [2] has as its system bone resorption. Particulars: Sato et al.; cited from earlier work.
The test system of test [3] is osteoclasts. Particulars: cited from earlier work.
For test [4], the target named is human αvβ3 receptor (Homo sapiens, UniProt P05106+P06756). Description: Bond displacement / binding competition test: Vitronectin/Vitronectin Receptor (αvβ3), plate assay. The following applies: human vitronectin coated plates, 3 hours at ambient temperature, read-out: Binding competition test Vn/VR (αvβ3) IC50. Here is the method:
Pharmacological Study of the Products of the Invention 1--Study by the Products of the Invention of the Bond Displacement: Vitronectin/Vitronectin Receptor (αvβ3) 96-well MaxiSorp plates are coated overnight at 4° C., with 100 μl of human Vitronectin (cf Yatohgo et al. Cell., Structure and fraction 13: 281-292 (1988)) at 2 μg/ml, (Dilution in coating buffer).
The next day, the wells are emptied and the ligands (Vitronectin) are then fixed (see fixation buffer) for 1 hour at ambient temperature under gentle agitation.
The wells are washed six times (see washing buffer), then the following are added per well and in this order:
40 μl of incubation buffer, 10 μl of the dilution of the product to be tested, (the products are diluted in a 50/50 mixture of DMSO-H2 O) 50 μl of human αvβ 3 receptor (cf Pytela et al. Methods Enzymol (1987) 144:475) (dilution in incubation buffer, adapted according to the batch of receptor and according to the ligand).
The ligand, the human αvβ3 receptor and the products to be studied are incubated for 3 hours at ambient temperature under gentle agitation.
The wells are again washed six times, then incubated for 2 hours at ambient temperature under gentle agitation, in the presence of 100 μl of 4B12-HRP antibody, anti-receptor coupled to a peroxidase (the 4B12-HRP antibody is diluted in incubation buffer. The dilution is adapted according to the batch of receptor).
The wells are then washed six times before measurement of ligand-receptor bond is carried out using a peroxidase developer kit (TMB Microwell Peroxidase Substrate System Kirkegaard: Ref. cat. 50-76-00).
This kit contains a flask A of substrate (3,3', 5,5'-tetramethylbenzidine at 0.4 g/l) and a flask B (H2 O2 at 0.02% in Citrate/Citric acid buffer). Extemporaneously, one volume of A is mixed with one volume of B, then the reaction mixture is distributed at the rate of 100 µl/well. The enzymatic reaction develops in 12' for Vitronectin/αvβ3, then its development is stopped by the addition of 100 μl of 1M phosphoric acid.
The optical density is measured at 450 nm. […]
coating buffer: 0.05 M Carbonate, NaOH pH 9.6 fixation buffer: PBS containing 0.5% of BSA (pH 7.4) washing buffer: PBS containing 0.05% of Tween 20 (pH 7.4)
The following curve is plotted: the percentage of bond of human vitronectin as a function of the logarithm of the concentration of each product tested.
For each product the IC50 is determined according to the following formula:
BO=Maximum bond in the absence of any product
Bmin=Minimum bond in the presence of the highest concentration of product.

With Echistatin, in test [1], the “inhibition of bone resorption in vivo” value is on record as “powerful inhibitor of bone resorption”. For the same compound, the “inhibition of bone resorption in tissues cultured in vitro” value in test [2] is “powerful inhibitor of bone resorption”. In addition, in test [3], the “inhibition of the adhesion of the osteoclasts to bone” value was “inhibitor of the adhesion of the osteoclasts to bone”.

`COc1c(SCCC(NC(=O)OCc2ccccc2)C(=O)O)cc2c(c1OC)C1=C(CCC1)C(=NNC1=NCCN1)CC2` (racemic) [Example 1, S-[4-[(4,5-dihydro-1H-imidazol-2-yl)hydrazono]-9,10-dimethoxy-1,2,3,4,5,6-hexahydro-8-benz[e]azulenyl]-N-[(phenylmethoxy)carbonyl]-DL-homocysteine]: the IC50 in test [4] turned out to be 40 nM.

As to `O=C(NC(CCSc1ccc2c(c1)CCC(=NN=C1NCCN1)C1=C2CCC1)C(=O)O)OCc1ccccc1` (racemic) [Example 4, S-[4-[(2-imidazolidinylidene)hydrazono]-1,2,3,4,5,6-hexahydro-8-benz[e]azulenyl]-N-[(phenylmethoxy)carbonyl]-DL-homocysteine], the IC50 in test [4] was 30 nM.

On to `O=C(NC(CCS(=O)(=O)c1ccc2c(c1)CCC(=NNC1=NCCN1)C1=C2CCC1)C(=O)O)OCc1ccccc1` (stereo not shown) [Example 5, hydrochloride of 4-[[4-[(2-imidazoli-dinylidene)hydrazono]-1,2,3,4,5,6-hexahydro-8-benz[e]azulenyl]sulphonyl]-2-[[(phenylmethoxy)carbonyl]amino]-butanoic acid], for which the IC50 in test [4] was 33 nM.

For the compound `O=C(NC(CC[S+]([O-])c1ccc2c(c1)CCC(=NN=C1NCCN1)C1=C2CCC1)C(=O)O)OCc1ccccc1` (stereo not shown) [Example 6, 4-[[4-[(2-imidazolidinylidene)hydrazono]-1,2,3,4,5,6-hexahydro-8-benz[e]azulenyl]sulphinyl]-2-[[(phenylmethoxy)carbonyl]amino]-butanoic acid], in test [4], the IC50 turned out to be 230 nM.
